Data from paper PMC9320206, “Sanguinarine, identified as a natural alkaloid LSD1 inhibitor, suppresses lung cancer cell growth and migration” (Iranian Journal of Basic Medical Sciences, 2022).

Molecular target: T1, Lysine-specific demethylase 1 (LSD1) (Homo sapiens, UniProt O60341)
T1 construct: gene KDM1A; recombinant LSD1 (pET-28b-LSD1, expressed in BL21(DE3))
Assay: HRP/Amplex Red fluorescence demethylase assay with H3K4me2 peptide; no-enzyme counter-screen; […] dilution reversibility assay
Format: biochemical

## C[n+]1cc2c3c(ccc2c2ccc4cc5c(cc4c21)OCO5)OCO3 [sanguinarine]
  IC50: 400 nM
